Test results published in US11000033B2, “Ketone or oxime compound, and herbicide” (NISSAN CHEMICAL CORPORATION, priority 2014, dated 2021).

Key:
Format in all cases: in vivo
[1] = system: Veronica persica; experiment: Test Example 5: herbicidal effect by foliage application, plastic box (symbol R); conditions: 320 g/ha, 3 weeks after application
Method in brief: (§1)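 Seeds were sown in sterilized diluvial soil, covered with about 1.5 cm of soil and grown 14 days in a greenhouse at 25° C. to 30° C. An emulsifiable formulation diluted in water to a set rate was sprayed over foliage, and injury was scored 3 weeks later.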

[2] = system: Lolium multiflorum Lam.; experiment: Test Example 5: herbicidal effect by foliage application, plastic box (symbol K); conditions: 320 g/ha, 3 weeks after application
Method in brief: as §1

[3] = system: rapeseed; experiment: Test Example 4: effect on crop by soil treatment (symbol g); conditions: application herbicide amount 320 g/ha
Method in brief: (§2)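 Grown at 25° C. to 30° C. in a greenhouse, the crops came from seed sown spot-wise in sterilized diluvial soil under roughly 1.5 cm of covering soil.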

[4] = system: Galium spurium; experiment: Test Example 5: herbicidal effect by foliage application, plastic box (symbol Q); conditions: 320 g/ha, 3 weeks after application
Method in brief: as §1

[5] = system: rice; experiment: Test Example 4: effect on crop by soil treatment (symbol b); conditions: application herbicide amount 320 g/ha
Method in brief: as §2

[6] = system: Digitaria ciliaris; experiment: Test Example 4: herbicidal effect by soil treatment (symbol F); conditions: application herbicide amount 320 g/ha
Method in brief: (§3)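 Seeds were sown in sterilized diluvial soil, covered with about 1.5 cm of soil, and the soil surface was sprayed with a water-diluted emulsion of the compound at a predetermined rate. Plants grew in a greenhouse at 25° C. to 30° C.; effects were scored visually 3 weeks after application.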

[7] = system: Monochoria vaginalis; experiment: Test Example 2: herbicidal activity, application during weed generation in submerged conditions (symbol C); conditions: Table 23; application herbicide amount 320 g/ha; grade 0-5 by criteria of Test Example 1
Method in brief: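 Compound was applied as a water-diluted emulsion into the standing water of flooded pots (4 cm) once co-sown weeds reached one to two leaves. Greenhouse temperature was 25° C. to 30° C., soil was alluvial, and each species was rated visually after 3 weeks.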

[8] = system: Echinochloa crus-galli var. crus-galli; experiment: Test Example 4: herbicidal effect by soil treatment (symbol H); conditions: application herbicide amount 320 g/ha
Method in brief: as §3

[9] = system: Digitaria ciliaris; experiment: Test Example 5: herbicidal effect by foliage application, plastic box (symbol F); conditions: 320 g/ha, 3 weeks after application
Method in brief: as §1

[10] = system: Apera spica-venti; experiment: Test Example 5: herbicidal effect by foliage application, plastic box (symbol L); conditions: 320 g/ha, 3 weeks after application
Method in brief: as §1

[11] = system: Alopecurus myosuroides; experiment: Test Example 4: herbicidal effect by soil treatment (symbol J); conditions: application herbicide amount 320 g/ha
Method in brief: as §3

[12] = system: Avena fatua; experiment: Test Example 5: herbicidal effect by foliage application, plastic box (symbol I); conditions: 320 g/ha, 3 weeks after application
Method in brief: as §1

[13] = system: Abutilon theophrasti; experiment: Test Example 5: herbicidal effect by foliage application, plastic box (symbol M); conditions: 320 g/ha, 3 weeks after application
Method in brief: as §1

[14] = system: Amaranthus retroflexus; experiment: Test Example 5: herbicidal effect by foliage application, plastic box (symbol N); conditions: 320 g/ha, 3 weeks after application
Method in brief: as §1

[15] = system: Avena fatua; experiment: Test Example 4: herbicidal effect by soil treatment (symbol I); conditions: application herbicide amount 320 g/ha
Method in brief: as §3

[16] = system: Lolium multiflorum Lam.; experiment: Test Example 4: herbicidal effect by soil treatment (symbol K); conditions: application herbicide amount 320 g/ha
Method in brief: as §3

[17] = system: beet; experiment: Test Example 4: effect on crop by soil treatment (symbol f); conditions: application herbicide amount 320 g/ha
Method in brief: as §2

[18] = system: Chenopodium album; experiment: Test Example 5: herbicidal effect by foliage application, plastic box (symbol O); conditions: 320 g/ha, 3 weeks after application
Method in brief: as §1

[19] = system: wheat; experiment: Test Example 5: effect on crop by foliage application, plastic box (symbol e); conditions: 320 g/ha, 3 weeks after application
Method in brief: (§4)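 Foliage-application test plants come from spot sowing in sterilized diluvial soil under a soil layer of about 1.5 cm, grown at 25° C. to 30° C. in a greenhouse.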

[20] = system: rapeseed; experiment: Test Example 5: effect on crop by foliage application, plastic box (symbol g); conditions: 320 g/ha, 3 weeks after application
Method in brief: as §4

[21] = system: Stellaria media; experiment: Test Example 5: herbicidal effect by foliage application, plastic box (symbol P); conditions: 320 g/ha, 3 weeks after application
Method in brief: as §1

[22] = system: directly sowed rice plant; experiment: Test Example 3: effect on crop by foliage application, Wagner pot (symbol b); conditions: application herbicide amount 320 g/ha
Method in brief: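 Alluvial soil in a 1/10000-are Wagner pot was flooded to a water depth of 0.1–0.5 cm. Echinochloa crus-galli var. crus-galli, Leptochloa chinensis, Cyperus difformis and rice were sown into it and grown in a greenhouse at 25–30 °C.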

Structure (SMILES): CON=C(C)CC1CC(O)=C(c2c(C)cc(-c3ccsc3)cc2C)C1=O (stereo not shown) [6-106]
- R: Veronica persica, herbicidal effect (criteria of Test Example 1) [1]: 3 (Herbicidal ratio of 40% or higher and lower than 70%)
- K: Lolium multiflorum Lam., herbicidal effect (criteria of Test Example 1) [2]: 5 (Herbicidal ratio of 90% or more (almost completely withered))
- Effect on crop grade, g: rapeseed [3]: 3 (Herbicidal ratio of 40% or higher and lower than 70%)
- Q: Galium spurium, herbicidal effect (criteria of Test Example 1) [4]: 3 (Herbicidal ratio of 40% or higher and lower than 70%)
- Effect on crop grade, b: directly sowed rice plant [5]: 1 (Herbicidal ratio of 5% or higher and lower than 20%)
- Herbicidal effect grade, F: Digitaria ciliaris [6]: 5 (Herbicidal ratio of 90% or more (almost completely withered))
- Herbicidal effect grade, C: Monochoria vaginalis [7]: 4 (Herbicidal ratio of 70% or higher and lower than 90%)
- Herbicidal effect grade, H: Echinochloa crus-galli var. crus-galli [8]: 5 (Herbicidal ratio of 90% or more (almost completely withered))
- F: Digitaria ciliaris, herbicidal effect (criteria of Test Example 1) [9]: 5 (Herbicidal ratio of 90% or more (almost completely withered))
- L: Apera spica-venti, herbicidal effect (criteria of Test Example 1) [10]: 5 (Herbicidal ratio of 90% or more (almost completely withered))
- Herbicidal effect grade, J: Alopecurus myosuroides [11]: 3 (Herbicidal ratio of 40% or higher and lower than 70%)
- I: Avena fatua, herbicidal effect (criteria of Test Example 1) [12]: 3 (Herbicidal ratio of 40% or higher and lower than 70%)
- M: Abutilon theophrasti, herbicidal effect (criteria of Test Example 1) [13]: 0 (Herbicidal ratio of 5% or lower (almost no effect))
- N: Amaranthus retroflexus, herbicidal effect (criteria of Test Example 1) [14]: 0 (Herbicidal ratio of 5% or lower (almost no effect))
- Herbicidal effect grade, I: Avena fatua [15]: 3 (Herbicidal ratio of 40% or higher and lower than 70%)
- Herbicidal effect grade, K: Lolium multiflorum Lam. [16]: 3 (Herbicidal ratio of 40% or higher and lower than 70%)
- Effect on crop grade, f: beet [17]: 0 (Herbicidal ratio of 5% or lower (almost no effect))
- O: Chenopodium album, herbicidal effect (criteria of Test Example 1) [18]: 0 (Herbicidal ratio of 5% or lower (almost no effect))
- e: wheat, effect on crop (criteria of Test Example 1) [19]: 3 (Herbicidal ratio of 40% or higher and lower than 70%)
- g: rapeseed, effect on crop (criteria of Test Example 1) [20]: 5 (Herbicidal ratio of 90% or more (almost completely withered))
- P: Stellaria media, herbicidal effect (criteria of Test Example 1) [21]: 3 (Herbicidal ratio of 40% or higher and lower than 70%)
- effect on crop b (directly sowed rice plant), grade 0-5 [22]: 5 (Herbicidal ratio of 90% or more (almost completely withered))
